In publication PMC12024234, “Antioxidant, Anti-Inflammatory, and Oral Bioavailability of Novel Sulfonamide Derivatives of Gallic Acid” (Antioxidants, 2025):
Several values for one entry are separate records, joined by “and”; a condition that tells them apart may be missing. Identical values can stand only once. Entries after “also recorded” stand apart in the source; their conditions may differ.

What was measured:
[1] = DPPH radical scavenging assay; conditions: for DPPH radical scavenging activity (in words): across tested concentrations 1 to 1000 μM
Procedure: (§1) The antioxidant properties of the compounds under study were examined using the 2,2-Diphenyl-1-picrylhydrazyl (DPPH) assay, following a well-established protocol. A DPPH solution was prepared at a concentration of 0.1 mM in methanol. […] To ensure proper reaction, the mixtures were kept in the dark and incubated at room temperature for 30 min. After incubation, the absorbance of each sample was measured at 517 nm using a UV-VIS spectrophotometer. Gallic acid was used as the reference standard, and methanol served as the blank control.
The ability of the compounds to scavenge free radicals was determined by observing the reduction of DPPH at 517 nm, with lower absorbance values indicating higher antioxidant activity. The half-maximal inhibitory concentration (IC50), defined as the concentration of the compound needed to neutralize 50% of the DPPH radicals, was calculated from the dose–response curve. All experiments were performed in triplicate, and the results are reported as the mean of three independent trials. This method is widely recognized for its reliability and reproducibility in evaluating the antioxidant potential of chemical compounds.

[2] = Ferric reducing antioxidant power (FRAP) assay; conditions: compared to GA
Procedure: The FRAP assay was conducted following an adapted procedure based on the method described by Benzie (1996). The FRAP reagent was prepared fresh and warmed to 25 °C before use. The reagent was made by combining 2.5 mL of a 10 mM TPTZ solution in 40 mM hydrochloric acid, 2.5 mL of a 20 mM FeCl3·6H2O solution, and 25 mL of a 0.3 M sodium acetate buffer adjusted to pH 3.6. For the assay, 100 μL of each sample was mixed with 3 mL of the freshly prepared FRAP reagent and incubated for 4 min. After incubation, the absorbance was recorded at 593 nm using a UV-VIS spectrophotometer, with methanol serving as the blank. A standard calibration curve was generated using ascorbic acid solutions at concentrations of 100, 200, 400, 800, and 1000 μM (R^2 = 0.998). The FRAP values were calculated as μM of ascorbic acid equivalents based on the standard curve. The results presented are the mean of three independent experiments.

COX-2 = molecular target: T1, COX-2 (Homo sapiens, UniProt P35354); assay: Cyclooxygenase (COX-2) activity assay in HIEC-6 cell lysate; assay type: biochemical
T1 construct: endogenous in cells; host or cells: HIEC-6 cell lysate
T1 sequence (P35354 18-604): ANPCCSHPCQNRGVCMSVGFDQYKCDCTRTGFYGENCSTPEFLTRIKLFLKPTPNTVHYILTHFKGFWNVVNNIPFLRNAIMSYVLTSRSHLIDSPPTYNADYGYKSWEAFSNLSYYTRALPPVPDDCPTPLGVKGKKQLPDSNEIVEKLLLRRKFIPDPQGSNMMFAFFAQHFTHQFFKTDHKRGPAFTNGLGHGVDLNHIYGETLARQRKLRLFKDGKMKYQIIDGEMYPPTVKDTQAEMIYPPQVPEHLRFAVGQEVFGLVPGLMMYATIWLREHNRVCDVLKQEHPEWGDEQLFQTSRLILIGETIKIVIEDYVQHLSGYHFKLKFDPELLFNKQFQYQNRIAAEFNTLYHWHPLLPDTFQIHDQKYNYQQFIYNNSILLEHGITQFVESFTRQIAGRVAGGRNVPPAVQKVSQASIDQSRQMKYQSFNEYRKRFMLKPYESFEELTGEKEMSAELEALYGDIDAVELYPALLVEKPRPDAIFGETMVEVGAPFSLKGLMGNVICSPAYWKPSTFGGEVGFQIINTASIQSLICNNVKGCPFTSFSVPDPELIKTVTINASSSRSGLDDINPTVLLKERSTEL
Procedure: Cyclooxygenase (COX-2) activity assay was performed in HIEC-6 cells according to the manufacturer’s instructions (ab204699). Resorufin standards (0–20 pmol/well) were used to generate a calibration curve for quantifying sample concentrations. HIEC-6 cells were centrifuged at 500× g for 3 min and washed with PBS. The cell pellet was lysed in an ice-cold lysis buffer containing 10% Triton X-100 and a protease inhibitor cocktail in PBS for 5 min. The lysate was then centrifuged at 12,000× g for 3 min at 4 °C, and the supernatant was collected and kept on ice. Protein concentration in the supernatant was determined using a Bradford assay, with a bovine serum albumin standard curve (0–2000 µg/mL). […] This mixture was added to a 96-well plate, and the reaction was initiated by adding arachidonic acid (COX-2 substrate) dissolved in NaOH solution. The enzymatic reaction produced fluorescent resorufin dye, which was measured at excitation/emission wavelengths of λEx/Em = 535/587 nm.

[3] = molecular target: Bovine Serum Albumin (BSA) (Bos taurus, UniProt P02769); assay: Protein denaturation assay; assay type: biochemical; conditions: at 100 nM and higher concentrations (range 1–1000 nM)
Sequence of Bovine Serum Albumin (BSA) (P02769 25-607): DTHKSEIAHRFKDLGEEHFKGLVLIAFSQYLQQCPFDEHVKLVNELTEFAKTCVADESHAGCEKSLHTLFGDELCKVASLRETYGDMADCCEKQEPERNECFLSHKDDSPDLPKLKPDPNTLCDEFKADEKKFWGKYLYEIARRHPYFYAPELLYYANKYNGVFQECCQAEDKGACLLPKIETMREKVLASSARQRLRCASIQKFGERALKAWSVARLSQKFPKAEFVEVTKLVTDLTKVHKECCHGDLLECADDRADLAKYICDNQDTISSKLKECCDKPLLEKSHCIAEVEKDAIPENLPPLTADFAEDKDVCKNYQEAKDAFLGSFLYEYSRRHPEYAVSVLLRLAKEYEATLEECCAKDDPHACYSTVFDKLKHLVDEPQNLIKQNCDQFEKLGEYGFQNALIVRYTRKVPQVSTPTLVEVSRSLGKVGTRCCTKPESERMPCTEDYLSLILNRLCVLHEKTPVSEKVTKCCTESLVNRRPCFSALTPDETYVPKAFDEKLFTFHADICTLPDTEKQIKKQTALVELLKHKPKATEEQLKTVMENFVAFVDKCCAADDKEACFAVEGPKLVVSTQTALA
Procedure: The anti-inflammatory potential of the compounds was evaluated using a protein denaturation assay, a well-established method to assess the capacity of test substances to inhibit protein denaturation, a key marker of inflammation. […] After heating, the samples were allowed to cool to room temperature, and the turbidity of the solutions, indicative of protein precipitation, was measured spectrophotometrically at 660 nm. A reduction in turbidity corresponds to the inhibition of protein denaturation, reflecting the anti-inflammatory activity of the tested compounds.

CYP2D6 [4] = molecular target: T2, CYP2D6 (Homo sapiens, UniProt P10635); assay: Metabolism by cytochrome P450 2D6 (CypExpress), HPLC; assay type: in vitro ADME; conditions: 4 h
T2 construct: purchased Sigma Aldrich C4982
T2 sequence (P10635 whole entry): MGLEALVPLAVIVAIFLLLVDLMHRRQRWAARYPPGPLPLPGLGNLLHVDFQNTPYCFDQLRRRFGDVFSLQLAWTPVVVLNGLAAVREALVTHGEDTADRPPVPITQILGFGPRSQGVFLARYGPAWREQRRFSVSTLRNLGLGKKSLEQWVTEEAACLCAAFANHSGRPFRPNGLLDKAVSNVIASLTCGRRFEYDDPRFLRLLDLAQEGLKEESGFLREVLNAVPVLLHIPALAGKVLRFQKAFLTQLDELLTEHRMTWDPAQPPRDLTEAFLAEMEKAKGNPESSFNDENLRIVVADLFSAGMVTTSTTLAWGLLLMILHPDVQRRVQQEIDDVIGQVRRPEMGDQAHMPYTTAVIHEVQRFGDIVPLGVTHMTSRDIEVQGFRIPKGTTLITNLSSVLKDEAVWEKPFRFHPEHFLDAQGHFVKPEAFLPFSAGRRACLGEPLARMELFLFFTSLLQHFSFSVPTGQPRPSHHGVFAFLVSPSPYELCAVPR
Procedure: The enzymatic activity of cytochrome P450 2D6 (CYP2D6) was evaluated following the CypExpress protocol (C4982, Sigma Aldrich, Darmstadt, Germany). The reaction buffer consisted of 5 mM glucose-6-phosphate (G6P), 2 mM nicotinamide adenine dinucleotide phosphate (NADP+), and 3,4,5-TMBS prepared in PBS at concentrations of 1000 and 1500 µM. Diltiazem was used as a positive control. The reaction was initiated by adding CYP2D6, and the mixture was vortexed for 5 min. The samples were then incubated at 37 °C with gentle shaking at 100 rpm for 4 h. The reaction was terminated by adding acetonitrile, followed by centrifugation at 800 rpm for 10 min. The supernatant was collected and analyzed using HPLC.

[5] = DPPH assay on supernatant after CYP2D6 metabolism
Procedure: as §1
To further assess the scavenging activity of 3,4,5-TMBS metabolites, an antioxidant assay was conducted after 3 and 4 h following the metabolism. After both 3 h and 4 h reaction periods, the enzyme was separated, and the resulting supernatant was utilized for the DPPH assay. Findings regarding the antioxidant activity of 3,4,5-TMBS, post-metabolism, at these time points, in comparison to GA and 3,4,5-THBS at the same concentration, are illustrated in Figure 9.

CYP2D6 [6] = molecular target: T2, CYP2D6; assay: Metabolism by cytochrome P450 2D6 (CypExpress), HPLC; assay type: in vitro ADME

| Compound | EC50 [1] | DPPH radical scavenging activity ([1]; at 1000 µM) | ROS scavenging activity ([1]; at 1000 µM (abstract)) | FRAP value (antioxidant capacity) [2] | COX-2 inhibition compared to ibuprofen (COX-2; 1 µM) | COX-2 inhibition compared to ibuprofen (COX-2; 50 µM) | DPPH radical scavenging activity (in words) [1] | DPPH radical scavenging activity (in words) ([1]; listed as TMBS) | Anti-inflammatory activity (inhibition of protein denaturation) compared to ibuprofen [3] | Metabolism by CYP2D6 (concentration) (CYP2D6 [4]; 1000 µM) | Metabolism by CYP2D6 (concentration) (CYP2D6 [4]; 1500 µM) | DPPH scavenging activity after CYP2D6 metabolism ([5]; 1000 µM, after four hours) | DPPH scavenging activity after CYP2D6 metabolism ([5]; 1000 µM, after three hours) | DPPH scavenging activity after CYP2D6 metabolism ([5]; 2000 µM, after three and four hours) | Metabolism by CYP2D6 (concentration) (CYP2D6 [6]; 1000 µM, 1 h) | Metabolism by CYP2D6 (concentration) (CYP2D6 [6]; 1000 µM, 3 h) | Metabolism by CYP2D6 (concentration) (CYP2D6 [6]; 1500 µM, 1 h) | Metabolism by CYP2D6 (concentration) (CYP2D6 [6]; 1500 µM, 3 h) | Percentage metabolized by CYP2D6 (CYP2D6 [6]; 1500 µM, one-hour time point) |
| --- | --- | --- | --- | --- | --- | --- | --- | --- | --- | --- | --- | --- | --- | --- | --- | --- | --- | --- | --- |
| NS(=O)(=O)c1cc(O)c(O)c(O)c1 [3,4,5-THBS, 3,4,5-trihydroxybenzenesulfonamide] | ~27 µM | exceeding 90% | 93% | lower antioxidant activity compared to GA | inhibition levels similar to ibuprofen | inhibition levels similar to ibuprofen |  |  |  |  |  |  |  |  |  |  |  |  |  |
| COc1cc(S(N)(=O)=O)cc(OC)c1OC [3,4,5-TMBS, 3,4,5-trimethoxybenzenesulfonamide] |  |  |  | lower antioxidant activity compared to GA | no significant difference in COX-2 inhibition relative to ibuprofen | high COX-2 inhibition; also recorded: highly significant increase in inhibition | negligible effects | minimal scavenging activity | significant increase in anti-inflammatory activity | 833 ± 54.9 µM | 1248 ± 5.02 µM | 45% | 35% | up to 61% | 754 ± 35.5 µM | 860.62 ± 0.71 µM | 984 ± 161 µM | 1241 ± 12.2 µM | 65% and 65.5% |
